Test results from ChEMBL document CHEMBL1201862, “PubChem BioAssay data set” (2004).
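Five concentrations, 48 hours, 96-well plates. GI50 = concentration required for 50% inhibition of growth.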 Active and inactive are the calls of the source. Rule as the data show it: active = GI50 up to about 1.1 µM and inactive = higher.

Columns and labels:
Assay in all cases: inhibition of tumour cell growth, NCI panel, 48 h
OVCAR-5 = test system: OVCAR-5
DU-145 = test system: DU-145
A549 = test system: A549
HOP-92 = test system: HOP-92
KM12 = test system: KM12
SW-620 = test system: SW-620
SK-MEL-2 = test system: SK-MEL-2
UACC-257 = test system: UACC-257
SK-MEL-28 = test system: SK-MEL-28
CAKI-1 = test system: CAKI-1
SK-OV-3 = test system: SK-OV-3
SNB-75 = test system: SNB-75
UO-31 = test system: UO-31
RXF 393 = test system: RXF 393
M14 = test system: M14
K562 = test system: K562
HCT-15 = test system: HCT-15
HL-60 = test system: HL-60
SF-539 = test system: SF-539
MDA-MB-231 = test system: MDA-MB-231

Compound | GI50 (OVCAR-5) | GI50 (DU-145) | GI50 (A549) | GI50 (HOP-92) | GI50 (KM12) | GI50 (SW-620) | GI50 (SK-MEL-2) | GI50 (UACC-257) | GI50 (SK-MEL-28) | GI50 (CAKI-1) | GI50 (SK-OV-3) | GI50 (SNB-75) | GI50 (UO-31) | GI50 (RXF 393) | GI50 (M14) | GI50 (K562) | GI50 (HCT-15) | GI50 (HL-60) | GI50 (SF-539) | GI50 (MDA-MB-231)
CCCCCCCCCCCC(=O)Oc1c(Cl)cc(Cl)c(OC(=O)C(=O)Oc2c(Cl)cc(Cl)c(OC(=O)CCCCCCCCCCC)c2Cl)c1Cl | > 100 µM (inactive) | > 100 µM (inactive) | > 100 µM (inactive) | > 100 µM (inactive) | > 100 µM (inactive) | > 100 µM (inactive) | > 10 µM (inactive) | > 100 µM (inactive) | > 100 µM (inactive) | > 100 µM (inactive) | > 100 µM (inactive) | > 100 µM (inactive) | > 100 µM (inactive) | > 100 µM (inactive) |  |  |  |  |  | 
N#CN=C(NCc1ccccc1)NCc1ccccc1 | > 100 µM (inactive) |  | > 83 µM (inactive) | > 100 µM (inactive) | > 100 µM (inactive) | > 44 µM (inactive) | > 100 µM (inactive) | > 100 µM (inactive) | > 100 µM (inactive) | > 100 µM (inactive) | > 100 µM (inactive) | > 100 µM (inactive) | > 100 µM (inactive) | > 48.6 µM (inactive) | > 100 µM (inactive) | > 75.3 µM (inactive) | > 40.3 µM | > 100 µM (inactive) | > 100 µM (inactive) | 
C=C(CC(NC(=O)c1ccc(C(CC)Cc2cnc3nc(N)nc(N)c3n2)cc1)C(=O)O)C(=O)O (stereo not given) | 0.653 µM (active) |  | 0.00567 µM (active) |  |  | 0.0673 µM (active) | 0.933 µM (active) | 0.839 µM (active) | 0.209 µM (active) | 0.169 µM (active) | 0.214 µM (active) | 0.154 µM (active) | 0.114 µM (active) | 0.237 µM (active) | 0.02 µM (active) | 0.00185 µM (active) | 0.00531 µM | 0.00376 µM (active) | 0.00319 µM (active) | 0.0736 µM (active)
Cc1ccccc1SC(/C=C/NNC1=NN=C(c2ccccc2)C(c2ccccc2)N1)c1ccccc1 (stereo not given) | > 100 µM (inactive) |  | 14.3 µM (inactive) | 9.57 µM (inactive) | 28.4 µM (inactive) | 27.7 µM (inactive) | 16.3 µM (inactive) | 18.6 µM (inactive) | 15.7 µM (inactive) | 13.7 µM (inactive) | 22.4 µM (inactive) | 5.68 µM (inactive) | 16.9 µM (inactive) | 11.1 µM (inactive) | 19.1 µM (inactive) | 30.2 µM (inactive) | 34 µM | > 10 µM (inactive) | 13.4 µM (inactive) | 
CCOC(=O)C12C(C(=O)OC)=C(C)N(NC(=O)Nc3ccccc3)C1(N)N(NC(=O)Nc1ccccc1)C(C)=C2C(=O)OC (stereo not given) | 38.5 µM (inactive) |  | 44.6 µM (inactive) | 24.9 µM (inactive) | 19.2 µM (inactive) | 40.6 µM (inactive) | 19.9 µM (inactive) | 21.1 µM (inactive) | 34.1 µM (inactive) | 34.9 µM (inactive) | > 59.8 µM (inactive) | 33.7 µM (inactive) | 40 µM (inactive) | 29.2 µM (inactive) | 21.2 µM (inactive) | 29.9 µM (inactive) | 35.2 µM | 23.6 µM (inactive) | 18.9 µM (inactive) | 
CC1(C)COC(c2cccc(C3=NC(C)(C)CO3)c2)=N1 | > 100 µM (inactive) | > 100 µM (inactive) | > 100 µM (inactive) | > 100 µM (inactive) | > 100 µM (inactive) | > 100 µM (inactive) | > 100 µM (inactive) | > 100 µM (inactive) | > 100 µM (inactive) | > 100 µM (inactive) |  |  | > 100 µM (inactive) |  | > 100 µM (inactive) | > 100 µM (inactive) | > 100 µM |  | > 100 µM (inactive) | > 100 µM (inactive)
O=C1c2ccccc2C(=O)N1/N=C\c1ccc(Br)cc1 | > 10 µM (inactive) |  | > 10 µM (inactive) | > 10 µM (inactive) | > 10 µM (inactive) | > 10 µM (inactive) | > 10 µM (inactive) | > 10 µM (inactive) | > 10 µM (inactive) | > 10 µM (inactive) | > 100 µM (inactive) | > 10 µM (inactive) | > 10 µM (inactive) | > 10 µM (inactive) | > 10 µM (inactive) | > 10 µM (inactive) | > 10 µM | > 10 µM (inactive) | > 10 µM (inactive) | 
CC(C)N(C(=O)C12C3C4C5(C#N)C3C1(I)C5C42I)C(C)C (stereo not given) | > 100 µM (inactive) |  | > 100 µM (inactive) | > 100 µM (inactive) | > 100 µM (inactive) | > 27 µM (inactive) | > 100 µM (inactive) | > 100 µM (inactive) | > 100 µM (inactive) | > 100 µM (inactive) | > 100 µM (inactive) | > 70.3 µM (inactive) | > 100 µM (inactive) | > 100 µM (inactive) | > 100 µM (inactive) | > 52.8 µM (inactive) | > 41.9 µM | > 47.4 µM (inactive) | > 60.8 µM (inactive) | 
Cc1ccc2c(c1)nc1n2C(c2c(F)cccc2F)SC1 (stereo not given) | 57.4 µM (inactive) |  | 28.8 µM (inactive) |  | 34.4 µM (inactive) | 31.9 µM (inactive) | 20 µM (inactive) | 56.8 µM (inactive) | 41 µM (inactive) | 27.9 µM (inactive) | 52.6 µM (inactive) | 8.51 µM (inactive) | 26.9 µM (inactive) | 27 µM (inactive) | 51.1 µM (inactive) | 22.3 µM (inactive) | 27.9 µM |  | 24.3 µM (inactive) | 41 µM (inactive)
Cc1ccccc1/C=N/C12CC3CC(CC(C3)C1)C2 | > 100 µM (inactive) |  | > 100 µM (inactive) | > 100 µM (inactive) | > 100 µM (inactive) | > 100 µM (inactive) | > 100 µM (inactive) | > 100 µM (inactive) | > 100 µM (inactive) | > 100 µM (inactive) | > 100 µM (inactive) | > 100 µM (inactive) | > 100 µM (inactive) | > 100 µM (inactive) | > 100 µM (inactive) | > 100 µM (inactive) | > 100 µM | > 100 µM (inactive) | > 100 µM (inactive) | 
Cn1c(N)nc(=O)c2c1N(C1OC(CO)C(O)C1O)CN2Cc1ccccc1 (stereo not given) | > 100 µM (inactive) |  | > 100 µM (inactive) | > 100 µM (inactive) | > 100 µM (inactive) | > 100 µM (inactive) | > 100 µM (inactive) | > 100 µM (inactive) |  | > 100 µM (inactive) | > 100 µM (inactive) | > 100 µM (inactive) | > 100 µM (inactive) | > 100 µM (inactive) | > 100 µM (inactive) | > 100 µM (inactive) | > 100 µM | > 100 µM (inactive) | > 100 µM (inactive) | 
Cc1c(NC(=O)CCl)c(=O)oc2c(C)c3occc(=O)c3cc12 | 18.5 µM (inactive) | 23.7 µM (inactive) | 14.5 µM (inactive) | 14.2 µM (inactive) | 11.7 µM (inactive) | 11.5 µM (inactive) |  | 12.1 µM (inactive) | 12.8 µM (inactive) | 12.3 µM (inactive) | 18.2 µM (inactive) | 2.39 µM (inactive) | 10.5 µM (inactive) |  | 13.1 µM (inactive) | 10.1 µM (inactive) | > 10 µM | 5.28 µM (inactive) |  | 
O=C(/N=C1\SCCN1C(=O)C(C(F)(F)F)C(F)(F)F)C(C(F)(F)F)C(F)(F)F | > 100 µM (inactive) |  | > 100 µM (inactive) | > 100 µM (inactive) |  | > 100 µM (inactive) | > 100 µM (inactive) | > 100 µM (inactive) | > 100 µM (inactive) | > 100 µM (inactive) | > 100 µM (inactive) |  | > 100 µM (inactive) | > 100 µM (inactive) | > 100 µM (inactive) | > 100 µM (inactive) | > 100 µM | > 100 µM (inactive) | > 100 µM (inactive) | > 100 µM (inactive)
COC(=O)[C@@]12C(=O)CCC(=O)C1C1C(=CC2C)O[C@@H]2OC3(CCCCC3)O[C@H]12 (stereo not given in full) | > 100 µM (inactive) |  | > 100 µM (inactive) | 40.5 µM (inactive) | 64.1 µM (inactive) | 48.1 µM (inactive) | > 100 µM (inactive) | > 100 µM (inactive) | 97.3 µM (inactive) | > 90.4 µM (inactive) | > 100 µM (inactive) | > 85.1 µM (inactive) | > 100 µM (inactive) | 69.2 µM (inactive) | > 100 µM (inactive) | 40.3 µM (inactive) | 54.2 µM | 25.8 µM (inactive) | > 100 µM (inactive) | 
CCCCCCCCCCC(=O)CC(=O)c1c(O)cccc1O | 19.7 µM (inactive) |  | 32.4 µM (inactive) | 27.1 µM (inactive) | 33 µM (inactive) | 34.2 µM (inactive) |  | 31.2 µM (inactive) | 53.7 µM (inactive) | 41 µM (inactive) | 38.1 µM (inactive) | 40.3 µM (inactive) | 29 µM (inactive) | 26.3 µM (inactive) | 40.2 µM (inactive) | 24.9 µM (inactive) | 47.4 µM | 16.3 µM (inactive) | 36.4 µM (inactive) | 
O=C1OC(c2ccccc2)=N/C1=C\c1cccc2ccccc12 | > 100 µM (inactive) |  | > 100 µM (inactive) | 52.4 µM (inactive) | > 100 µM (inactive) | > 100 µM (inactive) | > 100 µM (inactive) | > 100 µM (inactive) | > 100 µM (inactive) | > 100 µM (inactive) | > 100 µM (inactive) | > 100 µM (inactive) | > 100 µM (inactive) | > 100 µM (inactive) | > 100 µM (inactive) | > 100 µM (inactive) | > 100 µM | > 100 µM (inactive) | > 100 µM (inactive) | 
